Read-outs that look alike come from different tables or passages of the source.
Assays:
patients = details: gastrointestinal side-effects being a primary issue; cited from earlier work
[1] = cited from earlier work
[2] = test system: subjects with type 1 diabetes; assay: 52-week clinical trial: basal insulin + prandial TI Inhalation Powder vs basal insulin + SC insulin aspart; type: in vivo, human
Description: A Prospective, Multi-Center, Open-Label, Randomized, Controlled Clinical Trial Comparing the Efficacy and Safety in Subjects with Type 1 Diabetes Receiving SC Basal Insulin and Prandial Inhalation of Insulin-FDKP Versus SC Basal and Prandial Insulin Over a 52-Week Treatment Period and a 4-Week Follow-Up
This was a prospective, multi-country, multicenter, open label, randomized, controlled clinical trial comparing glycemic control in subjects with type 1 diabetes receiving basal insulin and prandial insulin-FDKP (TI) Inhalation Powder (TI Inhalation Powder group) with subjects receiving basal insulin and SC rapid-acting insulin aspart (comparator group). This study included a 52-week treatment phase and a 4-week follow-up phase. During the 4-week follow-up phase, pulmonary function and select clinical laboratory assessments were scheduled.
The study began with enrollment at Week −3. Subjects received a complete battery of safety and eligibility assessments, including HbA1c and fasting plasma glucose (FPG).
At Week −1, subjects were randomized to one of the following 2 treatments: • Basal insulin+prandial TI Inhalation Powder • Basal insulin+prandial SC rapid-acting insulin
At Week −1, subjects again completed the first three components of the Insulin Treatment Questionnaire (ITQ) for the purpose of assessing test-retest reliability only). After completing the questionnaire, subjects randomized to the TI Inhalation Powder group were trained on the MEDTONE® Inhaler using TECHNOSPHERE®/insulin (insulin-FDKP) inhalation powder; subjects in the comparator group were trained in the use of the NOVOLOG® pens; all subjects were trained in administration of LANTUS®. Additionally, all subjects were trained on a blood glucose monitoring (HBGM) meter provided at the beginning of the trial and diary and received diabetes education. Any training was repeated at Week 0, if needed.
At the beginning of the treatment phase, subjects had several titration/dose evaluation visits to adjust insulin therapy. Titration visits occurred once a week for the first 4 weeks. During Weeks 4 through 10, there were three telephone “visits” (at Week 6, Week 8, and Week 10) to titrate dose, if necessary. However, dose titration was allowed throughout the trial.
All subjects completed a 7-point blood glucose profile on any 3 days during the week immediately preceding each visit from Week 0 to Week 52. The 7 time points included samples from before breakfast and 2 hours after breakfast, before the mid-day meal and 2 hours after the mid-day meal, before the evening meal and 2 hours after the evening meal and at bedtime (7 time points a day, over 3 days). These blood glucose (BG) values were recorded in the HBGM diary that was collected at clinic visits. The diaries for Weeks 4 through 10 (during dose titration) which were discussed over the telephone were collected at the next office visits.
A meal challenge test was performed at Week 4 (during dose titration), Week 26, and Week 52. Meal challenge venous blood sampling times were: −30, 0, 30, 60, 90, 105, 120, 180, 240, 300, and 360 minutes. Blood glucose (BG) was also measured using HBGM glucose meters to aid the Investigator in treatment decisions and values were obtained at −30, 0, 60, and 120 minutes during the meal challenge.
Treatments for glycemic control used in the trial were the following: prandial insulin-FDKP (TI) inhalation powder, prandial insulin aspart, and basal insulin glargine. Subjects assigned to the TI Inhalation Powder group (TI Inhalation Powder in combination with basal insulin therapy) received sc basal insulin glargine (LANTUS®) once daily (at bedtime) and inhaled TI Inhalation Powder 3 to 4 times a day, immediately before main meals or a snack as based upon clinical need. Adjustment of the TI Inhalation Powder dose and frequency of use to greater than 3 times a day was at the discretion of the Investigator. […]

[3] = test system: subjects with type 2 diabetes; type: in vivo, human
Procedure: The insulin-FDKP formulation is administered to the subjects by oral inhalation using a MEDTONE® dry powder inhaler (MannKind Corp.). Following the completion of the meal challenge, the data was analyzed as per the statistical analysis plan. […] The study was amended (A1) and included 12 subjects (10 were reenrolled from the first meal challenge), and only two treatments, which were 10 U lispro and 60 and 90 U TI. The doses were selected based on the relative bioavailability observed following the first meal challenge (OP), where under an assumption of linear kinetics, 10 U lispro and 60 U TI would result in similar exposure. The 90 U dose group was included to assess the effect of the highest dose group of TI studied in Phase 3 trials. Six of the 12 subjects received 60 U TI and the other 6 subjects received 90 U TI. All 12 subjects received 10 U lispro in a crossover fashion. Methods and results below are described in terms of the Original Protocol (OP), which includes the meal challenge in 18 subjects with three treatments (EXUBERA®, lispro and TI) and Amendment 1 (A1), which includes 12 subjects treated with only TI and lispro. […] The subjects were screened and evaluated before, during and after the experiments and their data analyzed as described below. Subjects were selected based on several key inclusion criteria, including, male and female, having ≥18 and ≤70 years of age with clinical diagnosis of type 2 diabetes mellitus for ≥12 months. The subjects selected for the study also had stable anti-diabetic regimen with insulin for the previous 3 months; HbA1c ≤8.5%; Body Mass Index (BMI) between ≤34 kg/m^2 and ≥25 kg/m^2; urine cotinine ≤100 ng/mL; […] Criteria for exclusion from the study also included unstable diabetes control and/or evidence of serious complications of diabetes (e.g., autonomic neuropathy); serum creatinine >1.8 mg/dL in female subjects and >2.0 mg/dL in male subjects. Other clinically important pulmonary disease was confirmed by documented history or pulmonary function testing. Under OP, the study was planned to be a randomized, open label, 3-way cross-over study. […] At this analysis all patients at least had completed the meal challenge visits and only those data have been used. The screening visit(s) (V1) occurred 1 to 21 days before the first treatment visit (V2) with 7 to 21 days elapsing between treatment-visits (V2, V3, and V4) for the meal challenge test. A minimum of 8 weeks elapsed between V4 and the next treatment visit, (V6). An additional safety visit (V5) was scheduled 1-3 days prior to the first of 3 glucose clamp procedures (V6). The glucose clamp procedure occurred at 3 visits, Visits V6, V7, and V8, with 7 to 21 days elapsing between the visits. […] Each treatment visit during the meal challenge had the subjects hospitalized in the clinical unit the night before initiation of treatment. […] Each subject followed the same randomization order for the glucose-clamp procedures as for the meal challenge tests. During the study, periodic blood draws for determination of pharmacokinetic and/or pharmacodynamic parameters, and safety were taken beginning at 12 hours prior to onset of the treatment regimens and meal challenge, and thereafter for a period of 8 hours. […] Meal Challenge Test: BOOST PLUS® (12 fl. oz.) consisting of 67.5 g carbohydrate, 21 g protein, 21 g fat, energy content 540 kcal was used for the meal challenge test. The BOOST PLUS® was enriched with U-^13C-glucose to determine the amount of absorbed glucose. Concurrent enriched continuous infusion of 6,6-^2H2 glucose was used to assess endogenous glucose production EGP. […] Under OP, the dose for insulin lispro was selected based on information obtained from the regulatory label. The dose selected for EXUBERA® was obtained by means of back calculation of the most commonly used dose information presented to the FDA Advisory Committee in the EXUBERA® Briefing Document. […]

[4] = test system: subjects with type 2 diabetes; type: in vivo, human; remark: listed apart in the source
Procedure: Following the completion of the meal challenge, the data was analyzed as per the statistical analysis plan. […] The study was amended (A1) and included 12 subjects (10 were reenrolled from the first meal challenge), and only two treatments, which were 10 U lispro and 60 and 90 U TI. The doses were selected based on the relative bioavailability observed following the first meal challenge (OP), where under an assumption of linear kinetics, 10 U lispro and 60 U TI would result in similar exposure. The 90 U dose group was included to assess the effect of the highest dose group of TI studied in Phase 3 trials. Six of the 12 subjects received 60 U TI and the other 6 subjects received 90 U TI. All 12 subjects received 10 U lispro in a crossover fashion. Methods and results below are described in terms of the Original Protocol (OP), which includes the meal challenge in 18 subjects with three treatments (EXUBERA®, lispro and TI) and Amendment 1 (A1), which includes 12 subjects treated with only TI and lispro. […] The subjects were screened and evaluated before, during and after the experiments and their data analyzed as described below. Subjects were selected based on several key inclusion criteria, including, male and female, having ≥18 and ≤70 years of age with clinical diagnosis of type 2 diabetes mellitus for ≥12 months. The subjects selected for the study also had stable anti-diabetic regimen with insulin for the previous 3 months; HbA1c ≤8.5%; Body Mass Index (BMI) between ≤34 kg/m^2 and ≥25 kg/m^2; urine cotinine ≤100 ng/mL; […] Criteria for exclusion from the study also included unstable diabetes control and/or evidence of serious complications of diabetes (e.g., autonomic neuropathy); serum creatinine >1.8 mg/dL in female subjects and >2.0 mg/dL in male subjects. Other clinically important pulmonary disease was confirmed by documented history or pulmonary function testing. Under A1, the study was planned to be a randomized, open label, 2-way cross-over study. […] Blood glucose concentrations were measured at regular intervals from arterialized venous blood samples. […]

[5] = subjects with type 1 diabetes, prescribing information
[6] = 52 weeks, with basal insulin glargine
[7] = OP: 45 U insulin-FDKP, 12 U SC lispro, 4 mg EXUBERA, FIG. 6

CN(C)C(=N)N=C(N)N [metformin]
Patients who cannot tolerate the drug, at least at dosages adequate for acceptable glycemic control (patients): Approximately 30%

Regular human insulin: regular human insulin preparations for subcutaneous injection, considered short acting
Duration of significant elevation or activity (as long as) ([1]; subcutaneous injection): 10 to 12 h | Time to reach maximal activity ([1]; subcutaneous injection): 2 to 4 h | Time to reach maximal blood insulin concentration ([1]; subcutaneous injection): 1 to 2 h

insulin aspart: SC rapid-acting insulin analog (NOVOLOG®), comparator in Example 2
Median Tmax [1, 5]: 0.667 to 0.833 h | Mean decrease in fasting plasma glucose (FPG) from baseline ([2]; 52-week treatment period, with basal insulin glargine): 23.4 (SD 103.1) mg/dL | Mean fasting plasma glucose (FPG) at the end of the treatment period [2, 6]: 161.3 (SD 68.2) mg/dL | Percentage of subjects whose HbA1c level decreased to ≤6.5% [2, 6]: 7.31% | Percentage of subjects whose HbA1c level decreased to ≤7.0% [2, 6]: 15.98% | Percentage of subjects whose HbA1c level decreased to ≤8.0% [2, 6]: 56.16% | HbA1c ([2]; Week 14, with basal insulin glargine): 8.07 (SD 1.09) % | Average body weight gain ([2]; over the 52-week treatment period): 1.4 kg

insulin glulisine: rapid acting insulin analog (APIDRA®)
Range of Tmax ([1]; both type 1 and type 2 populations, prescribing information): 0.667 to 2 h | Median Tmax [1, 5]: 1 h | Median Tmax ([1]; subjects with type 2 diabetes, prescribing information): 1.67 h

insulin lispro: rapid acting insulin analog, subcutaneously administered (HUMALOG®, Eli Lilly & Co.)
Tmax ([1]; prescribing information): 0.5 to 1.5 h | Time of peak inhibition of endogenous glucose production after treatment ([3]; OP: 45 U insulin-FDKP, 12 U SC lispro, 4 mg EXUBERA, FIG. 5): about 80 minutes | Time after dosing at which glucose disappearance rate peaked [3, 7]: about 120 minutes | Time post dosing at which glucose disappearance rate was substantial / departed from baseline [3, 7]: about 30 minutes | Time post-treatment at which (further) glucose infusion was needed to remain above 90 mg/dL ([3]; OP: 45 U insulin-FDKP, 12 U SC lispro, 4 mg EXUBERA, after the initial phase): ~3 h | Median tmax of insulin concentration ([3]; human, in vivo, sc, 4 mg): 1.25 h | Total insulin exposure, greater than following either 45 U insulin-FDKP (TI) or 4 mg EXUBERA ([3]; in vivo): approximately 40% | Time of peak inhibition of endogenous glucose production following dosing ([4]; 10 U lispro SC, FIG. 10): about 100 minutes | Time after dosing at which glucose disappearance rate peaked ([4]; 10 U lispro SC, FIG. 11): about 100 minutes | Median tmax of insulin concentration ([4]; human, in vivo, sc): 1 h
